Results taken from patent US12331022B2, “Spiropiperidine allosteric modulators of nicotinic acetylcholine receptors” (Merck Sharp & Dohme LLC, priority 2019, dated 2025).
Where two headings read alike, the source gives them in different places.

Target: T1, human α7 nAChR (Homo sapiens, UniProt P36544)
T1 construct: host or cells: HEK
Assay: Automated patch-clamp electrophysiology functional assay (Assay A)
Type: cell-based
Settings: HEK cell line stably expressing human RIC-3 and human α7, IonFlux HT whole-cell population patch, with or without 40 μM acetylcholine
Experimental: The α7 nAChR positive allosteric modulator (PAM) activity of the present compounds may be tested using assays known in the art. The α7 nAChR PAMs described herein have activities in an automated patch-clamp electrophysiology functional assay as described in the examples. The assay was performed using the IonFlux HT in a whole-cell, population patch configuration. See Golden et al. Assay Drug Dev. Technol. (2011) 9:608-619. The compounds were assessed for their ability to modulate the function of the human α7 nAChR stably expressed in a HEK cell line both in the presence, and in the absence of the natural α7 agonist acetylcholine. By performing a series of such measurements at different concentrations, the effective concentration of the α7 nAChR PAMs (EC50) was determined. See Spencer et al. Assay Drug Dev. Technol. (2012) 10:313-324.
Direct activation of α7 (agonism), and potentiation of acetylcholine-evoked α7 currents was determined as follows:
Automated patch-clamp electrophysiology was performed using the IonFlux HT (Fluxion Biosciences Inc., San Francisco, CA) in the whole-cell, population patch configuration. Test compounds were assessed for their ability to modulate the function of the α7 nicotinic acetylcholine receptor both in the presence, and in the absence of the natural α7 agonist acetylcholine. A HEK cell line stably expressing both human RIC-3 and human α7 (PrecisION hnAChR α7/RIC-3, Eurofins Pharma, St. Charles, MO) was cultured in 175 cm^2 triple-layer tissue culture flasks to no more than 90% confluency in DMEM/F-12 growth media supplemented with 10% heat-inactivated fetal bovine serum, 1% non-essential amino acids, 0.625 μg/mL Puromycin, and 400 μg/mL Geneticin. Immediately prior to assay, cells were detached by first aspirating growth media, rinsing with Dulbecco's phosphate buffered saline, and then adding 10 mL of Accutase (Innovative Cell Technologies, San Diego, CA) to the flask and then incubating at 37° C. for 5 minutes. Detached cells were then recovered by the addition of 40 mL of CHO-serum-free media supplemented with 25 mM HEPES, and rocked gently in a 50 mL conical tube for 20 minutes prior to patch-clamp assay. After recovery, cells were pelleted by centrifugation at 1,000 RPM for 1 minute in a compact bench top centrifuge; recovery media was aspirated and cells were resuspended in external recording solution (150 mM NaCl, 5 mM KCl, 2 mM CaCl2, 1 mM MgCl2, 10 mM HEPES, 12 mM dextrose) to a density of 5.0×10^6 cells/mL. The cell suspension was added to the cell inlet wells on an IonFlux HT population patch plate which had previously been rinsed and primed with deionized H2O. Test compounds were serially diluted in DMSO and then resuspended to the final test concentration in external recording solution, with, or without 40 μM acetylcholine added to the external recording solution; test compounds were then transferred to the IonFlux HT population patch plate. Internal recording solution (110 mM TrisPO4, 28 mM TrisBase, 0.1 mM CaCl2, 2 mM MgCl2, 11 mM EGTA, 4 mM MgATP) was added to the internal recording solution inlet wells on the IonFlux HT patch plate previously loaded with cells and test compounds, and the plate loaded into the IonFlux HT instrument. A protocol was executed on the IonFlux HT to trap the cells, break into the cells, and establish the whole-cell recording configuration; cells were voltage-clamped at a holding potential of −60 mV for the duration of the experiment, all experiments were conducted at room temperature, and the IonFlux HT injection pressure was 8 psi for solution applications. Upon establishing the whole-cell configuration, external recording solution was perfused into the recording chambers for 120 seconds and then 40 μM acetylcholine was applied for 1 second and immediately washed off with external recording solution for 60 seconds. […]

T1 sequence (P36544 23-502): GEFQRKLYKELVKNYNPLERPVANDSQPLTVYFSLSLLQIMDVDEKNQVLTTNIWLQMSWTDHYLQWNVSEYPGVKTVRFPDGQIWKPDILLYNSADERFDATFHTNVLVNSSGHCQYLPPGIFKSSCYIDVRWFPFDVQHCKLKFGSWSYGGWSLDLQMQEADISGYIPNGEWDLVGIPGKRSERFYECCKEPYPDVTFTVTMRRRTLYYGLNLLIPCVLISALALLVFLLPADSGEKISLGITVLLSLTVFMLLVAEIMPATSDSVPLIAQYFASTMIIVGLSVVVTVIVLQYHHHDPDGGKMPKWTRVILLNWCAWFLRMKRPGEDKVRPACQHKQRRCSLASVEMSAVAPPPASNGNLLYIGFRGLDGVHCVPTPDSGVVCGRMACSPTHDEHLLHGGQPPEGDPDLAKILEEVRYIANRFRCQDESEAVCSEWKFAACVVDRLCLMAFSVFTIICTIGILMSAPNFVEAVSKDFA

| SMILES | EC50 (read-out: α7 nAChR EC50) | EC50 (read-out: α7 nAChR Potency) |
| --- | --- | --- |
| NS(=O)(=O)N1CCC2(CC1)CC2COc1ccnc(C(F)(F)F)c1 (stereo not shown) [Example 5, 1-({[2-(Trifluoromethyl)pyridin-4-yl]oxy}methyl)-6-azaspiro[2.5]octane-6-sulfonamide] | 3200 nM | 500 to 5000 nM |
| NS(=O)(=O)N1CCC2(CC1)CC2COc1cccc(OCC(F)(F)F)c1 (stereo not shown) [Example 7, 1-{[3-(2,2,2-Trifuoroethoxy)phenoxy]methyl}-6-azaspiro[2.5]octane-6-sulfonamide] | 330 nM | 100 to 500 nM |
| NS(=O)(=O)N1CCC2(CC1)C[C@H]2COc1cccnc1OCC(F)(F)F [Example 8, (1R)-1-({[2-(2,2,2-Trifluoroethoxy)pyridin-3-yl]oxy}methyl)-6-azaspiro[2.5]octane-6-sulfonamide] | 1200 nM | 500 to 5000 nM |
| NS(=O)(=O)N1CCC2(CC1)C[C@H]2COCc1cccc(OCC(F)(F)F)n1 [Example 9, (1R)-1-({[6-(2,2,2-Trifluoroethoxy)pyridin-2-yl]methoxy}methyl)-6-azaspiro[2.5]octane-6-sulfonamide] | 1200 nM | 500 to 5000 nM |
| NS(=O)(=O)N1CCC2(CC1)C[C@H]2COc1cccc(NCC(F)(F)F)n1 [Example 10, (1R)-1-[({6-[(2,2,2-Trifluoroethyl)amino]pyridin-2-yl}oxy)methyl]-6-azaspiro[2.5]octane-6-sulfonamide] | 74 nM | ≤ 100 nM |
| COc1ccc(Cl)cc1SC[C@@H]1CC12CCN(S(N)(=O)=O)CC2 [Example 11, (1R)-1-{[(5-Chloro-2-methoxyphenyl)sulfanyl]methyl}-6-azaspiro[2.5]octane-6-sulfonamide] | 52 nM | ≤ 100 nM |
| COc1ccc(Cl)cc1S(=O)(=O)C[C@@H]1CC12CCN(S(N)(=O)=O)CC2 [Example 12, (1R)-1-{[(5-Chloro-2-methoxyphenyl)sulfonyl]methyl}-6-azaspiro[2.5]octane-6-sulfonamide] | 1600 nM | 500 to 5000 nM |
| COc1ccc(Cl)cc1NC(=O)[C@@H]1CC12CCN(S(N)(=O)=O)CC2 [Example 13, (1R)—N-(5-Chloro-2-methoxyphenyl)-6-sulfamoyl-6-azaspiro[2.5]octane-1-carboxamide] | 200 nM | 100 to 500 nM |
| COc1ccc(Cl)cc1NC[C@@H]1CC12CCN(S(N)(=O)=O)CC2 [Example 14, (1R)-1-{[(5-Chloro-2-methoxyphenyl)amino]methyl}-6-azaspiro[2.5]octane-6-sulfonamide] | 48 nM | ≤ 100 nM |
| COc1ccc(Cl)cc1NC(=O)[C@@H]1C(F)(F)C12CCN(S(N)(=O)=O)CC2 [Example 15, (1R)—N-(5-Chloro-2-methoxyphenyl)-2,2-difluoro-6-sulfamoyl-6-azaspiro[2.5]octane-1-carboxamide] | 63 nM | ≤ 100 nM |
| NS(=O)(=O)N1CCC2(CC1)C[C@H]2COc1cccc(N2CCOCC2)n1 [Example 16, (1R)-1-({[6-(Morpholin-4-yl)pyridin-2-yl]oxy}methyl)-6-azaspiro[2.5]octane-6-sulfonamide] | 100 nM | 100 to 500 nM |
| NS(=O)(=O)N1CCC2(CC1)C(CSc1ccc(F)cc1C(F)(F)F)C2(F)F (stereo not shown) [Example 17, 1,1-Difluoro-2-({[4-fluoro-2-(trifluoromethyl)phenyl]sulfanyl}methyl)-6-azaspiro[2.5]octane-6-sulfonamide] | 720 nM | 500 to 5000 nM |
| NS(=O)(=O)N1CCC2(CC1)C(CCc1ccc(F)cc1C(F)(F)F)C2(F)F (stereo not shown) [Example 18, 1,1-Difluoro-2-{2-[4-fluoro-2-(trifluoromethyl)phenyl]ethyl}-6-azaspiro[2.5]octane-6-sulfonamide] |  | 5000 to 50000 nM |
| NS(=O)(=O)N1CCC2(CC1)C(/C=C/c1ccc(F)cc1C(F)(F)F)C2(F)F (stereo not shown) [Example 19, 1,1-Difluoro-2-{(E)-2-[4-fluoro-2-(trifluoromethyl)phenyl]ethenyl}-6-azaspiro[2.5]octane-6-sulfonamide] | 1900 nM | 500 to 5000 nM |
| COc1ccc(OC[C@@H]2CC23CCN(S(N)(=O)=O)CC3)c(OC)n1 [Example A1, (1R)-1-{[(2,6-dimethoxypyridin-3-yl)oxy]methyl}-6-azaspiro[2.5]octane-6-sulfonamide] | 6200 nM | 5000 to 50000 nM |
| COc1cc(OC[C@@H]2CC23CCN(S(N)(=O)=O)CC3)ccc1F [Example A4, (1R)-1-[(4-fluoro-3-methoxyphenoxy)methyl]-6-azaspiro[2.5]octane-6-sulfonamide] |  | 500 to 5000 nM |
| COc1cc(OC[C@H]2CC23CCN(S(N)(=O)=O)CC3)ccc1F [Example A5, (1S)-1-[(4-fluoro-3-methoxyphenoxy)methyl]-6-azaspiro[2.5]octane-6-sulfonamide] | 6200 nM | 5000 to 50000 nM |
| COc1cc(F)ccc1OC[C@@H]1CC12CCN(S(N)(=O)=O)CC2 [Example A6, (1R)-1-[(4-fluoro-2-methoxyphenoxy)methyl]-6-azaspiro[2.5]octane-6-sulfonamide] | 940 nM | 500 to 5000 nM |
| NS(=O)(=O)N1CCC2(CC1)C[C@@H]2COc1noc(-c2ccccc2)n1 [Example A13, (1S)-1-{[(5-phenyl-1,2,4-oxadiazol-3-yl)oxy]methyl}-6-azaspiro[2.5]octane-6-sulfonamide] | 4100 nM | 500 to 5000 nM |
| COc1cc(OC[C@H]2CC23CCN(S(N)(=O)=O)CC3)nc(OCC(F)(F)F)c1 [Example A16, (1S)-1-({[4-methoxy-6-(2,2,2-trifluoroethoxy)pyridin-2-yl]oxy}methyl)-6-azaspiro[2.5]octane-6-sulfonamide] | 190 nM | 100 to 500 nM |
| NS(=O)(=O)N1CCC2(CC1)C[C@H]2COc1cccc(OCC2CC2)n1 [Example A17, (1R)-1-({[6-(cyclopropylmethoxy)pyridin-2-yl]oxy}methyl)-6-azaspiro[2.5]octane-6-sulfonamide] | 130 nM | 100 to 500 nM |
| NS(=O)(=O)N1CCC2(CC1)C[C@@H]2COc1cccc(OCC2CC2)n1 [Example A18, (1S)-1-({[6-(cyclopropylmethoxy)pyridin-2-yl]oxy}methyl)-6-azaspiro[2.5]octane-6-sulfonamide] | 300 nM | 100 to 500 nM |
| Cc1cc(C)n(-c2cccc(OC[C@@H]3CC34CCN(S(N)(=O)=O)CC4)n2)n1 [Example A19, (1R)-1-({[6-(3,5-dimethyl-1H-pyrazol-1-yl)pyridin-2-yl]oxy}methyl)-6-azaspiro[2.5]octane-6-sulfonamide] | 190 nM | 100 to 500 nM |
| Cc1cc(C)n(-c2cccc(OC[C@H]3CC34CCN(S(N)(=O)=O)CC4)n2)n1 [Example A20, (1S)-1-({[6-(3,5-dimethyl-1H-pyrazol-1-yl)pyridin-2-yl]oxy}methyl)-6-azaspiro[2.5]octane-6-sulfonamide] | 1800 nM | 500 to 5000 nM |
| NS(=O)(=O)N1CCC2(CC1)C[C@H]2COc1cccc(OC(F)(F)F)c1 [Example A24, (1R)-1-{[3-(trifluoromethoxy)phenoxy]methyl}-6-azaspiro[2.5]octane-6-sulfonamide] | 180 nM | 100 to 500 nM |
| NS(=O)(=O)N1CCC2(CC1)C[C@@H]2COc1cccc(OC(F)(F)F)c1 [Example A25, (1S)-1-{[3-(trifluoromethoxy)phenoxy]methyl}-6-azaspiro[2.5]octane-6-sulfonamide] | 1900 nM | 500 to 5000 nM |
| NS(=O)(=O)N1CCC2(CC1)C[C@H]2COc1cccc(OCC(F)(F)F)n1 [Example A37, (1R)-1-({[6-(2,2,2-trifluoroethoxy)pyridin-2-yl]oxy}methyl)-6-azaspiro[2.5]octane-6-sulfonamide] | 74 nM | ≤ 100 nM |
